Data as given in ChEMBL document CHEMBL1201862, “PubChem BioAssay data set” (2004).
Structures can show the parent of a compound that is named as a salt.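 Assay format: 96-well plates, 48-hour exposure. Here, GI50 denotes the concentration required for 50% inhibition of growth.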 Active and inactive are the calls of the source. No stated cut-off is given here; in the data, active = GI50 up to about 1.1 µM and inactive = higher.

Experiments:
Experiment in all cases: NCI-60 cell line screen, 48 h
SW-620 = system: SW-620
M14 = system: M14
CCRF-CEM = system: CCRF-CEM
SK-MEL-28 = system: SK-MEL-28
SF-268 = system: SF-268
SK-OV-3 = system: SK-OV-3
SNB-75 = system: SNB-75
NCI-H226 = system: NCI-H226
KM-20L2 = system: KM-20L2
ACHN = system: ACHN
SF-539 = system: SF-539
786-0 = system: 786-0
XF498 = system: XF498
Malme-3M = system: Malme-3M
A498 = system: A498
EKVX = system: EKVX
KM12 = system: KM12
K562 = system: K562
OVCAR-3 = system: OVCAR-3
SNB-19 = system: SNB-19
HCC 2998 = system: HCC 2998
UACC-62 = system: UACC-62
OVCAR-4 = system: OVCAR-4
RXF 393 = system: RXF 393
UO-31 = system: UO-31
HCT-15 = system: HCT-15
DLD-1 = system: DLD-1
HOP-18 = system: HOP-18
HL-60 = system: HL-60
IGROV-1 = system: IGROV-1
LXFL 529 = system: LXFL 529
OVCAR-5 = system: OVCAR-5
CAKI-1 = system: CAKI-1
HOP-62 = system: HOP-62
HT-29 = system: HT-29
TK-10 = system: TK-10
SF-295 = system: SF-295
MOLT-4 = system: MOLT-4
RXF 631 = system: RXF 631
UACC-257 = system: UACC-257
RPMI-8226 = system: RPMI-8226
DMS-273 = system: DMS-273
OVCAR-8 = system: OVCAR-8
SNB-78 = system: SNB-78
NCI-H460 = system: NCI-H460
SK-MEL-2 = system: SK-MEL-2
HCT-116 = system: HCT-116
COLO 205 = system: COLO 205
LOX IMVI = system: LOX IMVI
NCI-H23 = system: NCI-H23
DMS-114 = system: DMS-114
HOP-92 = system: HOP-92
SK-MEL-5 = system: SK-MEL-5
A549 = system: A549
U-251 = system: U-251
M19-MEL = system: M19-MEL
SN12C = system: SN12C

Cc1nccc2c1[nH]c1cc(O)ccc12 [HARMOL HYDROCHLORIDE]
GI50 (SW-620): 39.1 µM (inactive)
GI50 (M14): > 100 µM (inactive)
GI50 (CCRF-CEM): 38.5 µM (inactive)
GI50 (SK-MEL-28): > 100 µM (inactive)
GI50 (SF-268): > 100 µM (inactive)
GI50 (SK-OV-3): > 100 µM (inactive)
GI50 (SNB-75): 33 µM (inactive)
GI50 (NCI-H226): 96.6 µM (inactive)
GI50 (KM-20L2): > 100 µM (inactive)
GI50 (ACHN): 31.8 µM (inactive)
GI50 (SF-539): 73.3 µM (inactive)
GI50 (786-0): 55.2 µM (inactive)
GI50 (XF498): 28.4 µM (inactive)
GI50 (Malme-3M): 44.7 µM (inactive)
GI50 (A498): 63.4 µM (inactive)
GI50 (EKVX): 68.2 µM (inactive)
GI50 (KM12): 55.8 µM (inactive)
GI50 (K562): 37.1 µM (inactive)
GI50 (OVCAR-3): 42.5 µM (inactive)
GI50 (SNB-19): > 100 µM (inactive)
GI50 (HCC 2998): 91 µM (inactive)
GI50 (UACC-62): 96.6 µM (inactive)
GI50 (OVCAR-4): > 100 µM (inactive)
GI50 (RXF 393): > 100 µM (inactive)
GI50 (UO-31): 37.6 µM (inactive)
GI50 (HCT-15): 61.4 µM
GI50 (DLD-1): 51.1 µM (inactive)
GI50 (HOP-18): 38 µM (inactive)
GI50 (HL-60): 29 µM (inactive)
GI50 (IGROV-1): 45.8 µM (inactive)
GI50 (LXFL 529): > 100 µM (inactive)
GI50 (OVCAR-5): 68.2 µM (inactive)
GI50 (CAKI-1): 41.1 µM (inactive)
GI50 (HOP-62): 91.6 µM (inactive)
GI50 (HT-29): 56.5 µM (inactive)
GI50 (TK-10): > 100 µM (inactive)
GI50 (SF-295): 33 µM (inactive)
GI50 (MOLT-4): 23.7 µM (inactive)
GI50 (RXF 631): > 100 µM (inactive)
GI50 (UACC-257): 82.4 µM (inactive)
GI50 (RPMI-8226): 44.5 µM (inactive)
GI50 (DMS-273): 54.5 µM (inactive)
GI50 (OVCAR-8): 49.2 µM (inactive)
GI50 (SNB-78): > 100 µM (inactive)
GI50 (NCI-H460): 37.4 µM (inactive)
GI50 (SK-MEL-2): > 100 µM (inactive)
GI50 (HCT-116): 41.5 µM (inactive)
GI50 (COLO 205): > 100 µM (inactive)
GI50 (LOX IMVI): 45.6 µM (inactive)
GI50 (NCI-H23): 76.7 µM (inactive)
GI50 (DMS-114): 70.3 µM (inactive)
GI50 (HOP-92): 27.5 µM (inactive)
GI50 (SK-MEL-5): 69.2 µM (inactive)
GI50 (A549): 44.8 µM (inactive)
GI50 (U-251): > 100 µM (inactive)
GI50 (M19-MEL): > 100 µM (inactive)
GI50 (SN12C): 76.4 µM (inactive)
